Columns and labels:
[1] = test system: MCF-7 breast cancer cells; test: Cell cycle profiles by FACS after transient transfection; type: cell-based; conditions: transient transfection of MCF-7
Procedure: Cell cycle profiles were analysed using fluuorescence activated cell sorting (FACS)(Allen, 1990; Baldetorp et al, 1998).

[2] = test system: SRC family proteins (SRC-1, AIB-1); test: Co-immunoprecipitation with HA-tagged coactivators from COS-7 cells; type: binding; conditions: absence of 17β-estradiol
Description: (§1) COS-7 cells were cotransfected with HA-tagged constructs encoding the nuclear receptor coactivators SRC-1, AIB-1 or p300 (Anzick et al., 1997; Chakravarti et al., 1996; Hanstein et al., 1996; Kamei et al., 1996; Onate et al., 1995) together with control plasmid, plasmids directing the synthesis of wild type cyclin D1 or D1 L254/255A mutant (D1-LALA). 12CA5 HA antibodies were used for immunoprecipitation of whole cell extracts prepared from these cells and co-immunoprecipitation of cyclin D1 (mutants) was examined by Western blot analysis using anti-cyclin D1 antibody. […] Precipitation with the anti-cyclin D1 antibody from the total lysate of the cells transfected with cyclin D1 and cyclin D1-LALA was similar. Binding of cyclin D1 and cyclin D1 L254/255A mutant to ER was then investigated. COS-7 cells were transfected with ER expression vector, cyclin D1 (mutant) and/or control plasmids. […] Differentially phosphorylated species of pRb were detected by Western blotting using the polyclonal pRb antibody (C15, Santa Cruz).
(§2) Cells were lysed in ELB containing 250 mM NaCl, 0.1% NP-40, 50 mM HEPES pH 7.0, 5 mM EDTA and protease inhibitors. […] After blocking with PBS containing 5% milk and 0.1% Tween-20, proteins were detected with monoclonal antibodies directed against cyclin D1 (DCS-6, Neomarkers) and peroxidase-conjugated goat anti-mouse IgG. […]

[3] = test system: pRb; test: Phosphorylation of pRb in Rb-/- 3T3 cells; type: cell-based; conditions: cells that lack cyclin D1-associated kinase activity, low serum
Description: as §1, with “plasmids. Monoclonal ER antibodies were used for immunoprecipitation of ER of whole cell extracts prepared from these cells and co-immunoprecipitation of cyclin D1 (mutant) was examined by Western blot analysis using monoclonal cyclin D1 antibodies. […] The activity of cyclin D1 and D1 L254/255A mutant in phosphorylation of pRb in Rb^−/− 3T3 cells was also investigated.” for “plasmids.”

[4] = target: T1, ER (Homo sapiens, UniProt P03372); test: Co-immunoprecipitation with ER from COS-7 cells; type: binding; set-up: expressed in transfected cells; host or cells: COS-7
T1 sequence (P03372 1-595): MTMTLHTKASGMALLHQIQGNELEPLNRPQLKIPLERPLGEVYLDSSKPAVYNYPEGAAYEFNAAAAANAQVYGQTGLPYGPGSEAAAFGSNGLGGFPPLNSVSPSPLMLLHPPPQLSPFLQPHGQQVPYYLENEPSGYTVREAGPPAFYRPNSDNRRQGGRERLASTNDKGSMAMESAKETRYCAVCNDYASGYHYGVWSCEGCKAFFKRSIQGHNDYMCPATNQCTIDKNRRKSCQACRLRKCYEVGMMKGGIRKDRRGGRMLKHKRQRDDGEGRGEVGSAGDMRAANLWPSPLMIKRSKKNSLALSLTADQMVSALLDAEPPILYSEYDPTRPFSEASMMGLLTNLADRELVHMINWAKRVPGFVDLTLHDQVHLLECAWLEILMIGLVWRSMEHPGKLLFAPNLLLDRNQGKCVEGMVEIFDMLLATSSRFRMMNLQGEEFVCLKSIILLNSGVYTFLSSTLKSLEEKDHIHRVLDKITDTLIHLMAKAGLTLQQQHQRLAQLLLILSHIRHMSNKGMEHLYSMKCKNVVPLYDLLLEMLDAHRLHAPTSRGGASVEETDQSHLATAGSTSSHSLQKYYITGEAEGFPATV
Description: as §1, §2

[5] = target: T1, ER; test: ER activation, ERE-reporter gene, in MCF-7 cells; type: cell-based; set-up: T47D and MCF-7, which contain endogenous wild type ER; endogenous in cells; host or cells: MCF-7; T47D; conditions: MCF-7, relative high levels of cyclin D1; 17β-estradiol enriched medium
Description: The ER-containing T47D and MCF-7 breast cancer cells were maintained in 17β-estradiol enriched medium with 10%fetal calf serum after cotransfection with a cyclin D1 L254/255A mutant expression vector and an ERE-reporter gene for testing its effect on ER activation (left panel). ER transactivation in the absence of co-expression of the cyclin D1 mutant was set at 100%.
To get more insight in the role of cyclin D1 in ER transactivation in breast cancers with elevated levels of cyclin D1, we have tested the effect of the mutant cyclin D1 L254/255A on ER activation in two different breast cancer cell lines. This cyclin D1 mutant does bind to ER, but fails both to interact with SRC-1 as shown above and consequently fails to activate ER (FIG. 1B). Therefore, this mutant can act as a dominant negative in cyclin D1-mediated ER transactivation as it binds to ER and fails to recruit coactivators. We tested the effect of this cyclin D1 mutant on ER activation in two breast cancer cell lines, T47D and MCF-7, which contain endogenous wild type ER, but differ in their cyclin D1 protein levels (FIG. 6). […] In contrast, in MCF-7, which contain relative high levels of cyclin D1 (FIG. 6), the cyclin D1 mutant inhibited up to 50% of ER activity. Thus, this dominant negative cyclin D1 mutant preferentially interferes with ER activation in breast cancer cells that have high levels of cyclin D1 protein.

ability to bind ER [4]: unaffected
inhibition of ER activity [5]: up to 50%
Substance: Cyclin D1-LALA: cyclin D1 mutant in which leucines 254 and 255 were mutated to alanines; dominant negative
effect on cell cycle [1]: arrest in the cell cycle at the G1/S checkpoint
Phase of cell cycle G0/G1 ([1]; FACS): 81.9%
Phase of cell cycle G2/M ([1]; FACS): 7.9%
Phase of cell cycle S ([1]; FACS): 10.2%
interaction with SRC family proteins [2]: did not interact
ability to phosphorylate pRb [3]: unaffected
